Results as given in patent US10952992B2, “Methods of treating intraocular pressure with activators of Tie-2” (Aerpio Pharmaceuticals, Inc., priority 2015, dated 2021).
Several values for one entry are separate records, joined by “and”; a condition that tells them apart may be missing. Identical values can stand only once.

Assays:
[1] = tested on: intraocular pressure in patients with diabetic macular edema; assay: Change in intraocular pressure from baseline, Compound 1 BID for 28 days (FIG. 1); format: in vivo, human; settings: doses greater than 15 mg BID, 28 Day EOT
Protocol: The difference in IOP was determined at the end of the trial, which was 28 days after treatment began (28 Day EOT). Changes in IOP were determined both in the study eye and the fellow eye.

[2] = In vitro diffusion across rabbit cornea and sclera in Franz cell; format: in vitro ADME; settings: 1.5% of the sodium salt with 5% HPβCD in 50:50 D5W:sterile water
[3] = tested on: intraocular pressure in normotensive New Zealand White rabbits; assay: Example 3 intraocular pressure after repeated topical and subcutaneous administration (pneumotonometer); format: in vivo; design: IOP, individual animal / IOP, group Average: unit not given here
Protocol: To measure the tolerability and effect of Compound 1 (sodium salt) on intraocular pressure following repeated topical and subcutaneous administration, normotensive New Zealand White rabbits were treated with Compound 1 (sodium salt). Animals were acclimated 1 to 2 times per day to the intraocular pressure (IOP) measurement procedures prior to initiation of the study to determine baseline IOP levels. IOP acclimation was performed in the two weeks prior to study start for a total of 5 days. Animals with unacceptable IOP values were excluded from the study. Prior to taking all IOP measurements, 1 to 2 drops of a 0.5% proparacaine solution were applied to the eye as a topical anesthetic. OP measurements were performed with a pneumotonometer. Test and control formulations were administered to the animals once or twice daily topically into both eyes or subcutaneously starting on Day 1 according to TABLE 20 and TABLE 21 below. PM dosing, where applicable, was performed ˜8 hours after AM dosing. IOP measurements were performed twice (AM and PM) at baseline (prior to the start of dosing), twice (AM and PM) on Days 1 and 7, and once daily (AM) on Days 2-6 and Day 8. Prior to taking all IOP measurements, 1 to 2 drops of a 0.5% proparacaine solution were applied to the eye as a topical anesthetic. IOP measurements were performed with a pneumotonometer. AM IOP measurements were performed 2 hours after AM dosing; the only exceptions were Day 8 AM measurements, which were performed 24 hours after the final dose. PM IOP measurements were performed ˜5 hours (baseline and Day 1) or ˜4 hours (Day 7) after AM IOP measurements, prior to PM dosing, with at least 15 minutes elapsing between anesthetic application for PM IOP measurements and PM dosing. The final round of slit-lamp examinations was performed on Day 8.

[4] = Group 2: 0.45 mg/eye topical sodium salt BID, Day 1, AM, OD
[5] = Group 2: 0.45 mg/eye topical sodium salt BID, Day 1, AM, OS
[6] = Group 2: 0.45 mg/eye topical sodium salt BID, Day 1, PM, OD
[7] = Group 2: 0.45 mg/eye topical sodium salt BID, Day 1, PM, OS
[8] = Group 2: 0.45 mg/eye topical sodium salt BID, Day 2, AM, OD
[9] = Group 2: 0.45 mg/eye topical sodium salt BID, Day 2, AM, OS
[10] = Group 2: 0.45 mg/eye topical sodium salt BID, Day 3, AM, OD
[11] = Group 2: 0.45 mg/eye topical sodium salt BID, Day 3, AM, OS
[12] = Group 2: 0.45 mg/eye topical sodium salt BID, Day 4, AM, OD
[13] = Group 2: 0.45 mg/eye topical sodium salt BID, Day 4, AM, OS
[14] = Group 2: 0.45 mg/eye topical sodium salt BID, Day 5, AM, OD
[15] = Group 2: 0.45 mg/eye topical sodium salt BID, Day 5, AM, OS
[16] = Group 3: 1.2 mg/eye topical sodium salt BID, Day 1, AM, OD
[17] = Group 3: 1.2 mg/eye topical sodium salt BID, Day 1, AM, OS
[18] = Group 3: 1.2 mg/eye topical sodium salt BID, Day 1, PM, OD
[19] = Group 3: 1.2 mg/eye topical sodium salt BID, Day 1, PM, OS
[20] = Group 3: 1.2 mg/eye topical sodium salt BID, Day 2, AM, OD
[21] = Group 3: 1.2 mg/eye topical sodium salt BID, Day 2, AM, OS
[22] = Group 3: 1.2 mg/eye topical sodium salt BID, Day 3, AM, OD
[23] = Group 3: 1.2 mg/eye topical sodium salt BID, Day 3, AM, OS
[24] = Group 3: 1.2 mg/eye topical sodium salt BID, Day 4, AM, OD

Q: Which “change in IOP relative to pre-treatment baseline” value [1] does the source give for `COC(=O)N[C@@H](Cc1ccccc1)C(=O)N[C@@H](Cc1ccc(NS(=O)(=O)O)cc1)c1csc(-c2cccs2)n1` [Compound 1] here?
A: Its value is “decreased IOP”.

Q: And the “diffusion across rabbit cornea and sclera in Franz cell” value [2]?
A: Its value is “substantial diffusion”.

Q: What about the “IOP, group Average” value [3, 4] of the same molecule?
A: The value was 22.1.

Q: And the “IOP, individual animal” value [3, 4]?
A: Its value is 20.3 and 23.7 and 24.0 and 20.7 and 21.7.

Q: What about the “IOP, group Average” value [3, 5] of the same molecule?
A: Its value is 23.3.

Q: And the “IOP, individual animal” value [3, 5]?
A: Its value is 20.7 and 23.3 (2×) and 25.2 and 23.8.

Q: And the “IOP, group Average” value [3, 6]?
A: Its value is 25.5.

Q: And the “IOP, individual animal” value [3, 6]?
A: The value was 24.8 (2×) and 29.5 and 22.0 and 26.2.

Q: What about the “IOP, group Average” value [3, 7] of the same molecule?
A: Its value is 26.1.

Q: And the “IOP, individual animal” value [3, 7]?
A: Its value is 24.8 and 24.2 and 28.8 and 25.3 and 27.2.

Q: What about the “IOP, group Average” value [3, 8] of the same molecule?
A: The value was 21.9.

Q: And the “IOP, individual animal” value [3, 8]?
A: Its value is 22.0 and 22.7 and 25.0 and 18.3 and 21.7.

Q: What about the “IOP, group Average” value [3, 9] of the same molecule?
A: Its value is 22.2.

Q: What about the “IOP, individual animal” value [3, 9] of the same molecule?
A: The value was 21.8 and 22.3 and 24.3 and 20.8 and 21.5.

Q: What about the “IOP, group Average” value [3, 10] of the same molecule?
A: Its value is 24.0.

Q: And the “IOP, individual animal” value [3, 10]?
A: Its value is 25.0 and 24.2 and 26.0 and 20.8 and 23.8.

Q: And the “IOP, group Average” value [3, 11]?
A: The value was 24.5.

Q: What about the “IOP, individual animal” value [3, 11] of the same molecule?
A: The value was 25.3 and 23.5 and 26.0 and 23.0 and 24.5.

Q: What about the “IOP, group Average” value [3, 12] of the same molecule?
A: The value was 23.9.

Q: And the “IOP, individual animal” value [3, 12]?
A: The value was 23.8 and 22.0 and 26.7 and 21.3 and 25.7.

Q: What about the “IOP, group Average” value [3, 13] of the same molecule?
A: The value was 24.3.

Q: What about the “IOP, individual animal” value [3, 13] of the same molecule?
A: The value was 23.0 and 22.7 and 26.3 and 23.5 and 26.2.

Q: What about the “IOP, group Average” value [3, 14] of the same molecule?
A: Its value is 25.2.

Q: And the “IOP, individual animal” value [3, 14]?
A: The value was 28.8 and 22.8 and 28.0 and 20.7 and 25.7.

Q: And the “IOP, group Average” value [3, 15]?
A: Its value is 26.5.

Q: What about the “IOP, individual animal” value [3, 15] of the same molecule?
A: Its value is 28.8 and 25.0 and 28.0 and 24.2 and 26.3.

Q: What about the “IOP, group Average” value ([3]; Group 2: 0.45 mg/eye topical sodium salt BID, Day 6, AM, OD) of the same molecule?
A: The value was 25.5.

Q: And the “IOP, group Average” value ([3]; Group 2: 0.45 mg/eye topical sodium salt BID, Day 6, AM, OS)?
A: Its value is 25.4.

Q: What about the “IOP, group Average” value ([3]; Group 2: 0.45 mg/eye topical sodium salt BID, Day 7, AM, OD) of the same molecule?
A: The value was 23.7.

Q: And the “IOP, group Average” value ([3]; Group 2: 0.45 mg/eye topical sodium salt BID, Day 7, AM, OS)?
A: Its value is 24.5.

Q: And the “IOP, group Average” value ([3]; Group 2: 0.45 mg/eye topical sodium salt BID, Day 7, PM, OD)?
A: The value was 25.1.

Q: What about the “IOP, group Average” value ([3]; Group 2: 0.45 mg/eye topical sodium salt BID, Day 7, PM, OS) of the same molecule?
A: Its value is 25.6.

Q: What about the “IOP, group Average” value ([3]; Group 2: 0.45 mg/eye topical sodium salt BID, Day 8, AM (24 hours after final dose), OD) of the same molecule?
A: The value was 24.9.

Q: And the “IOP, group Average” value ([3]; Group 2: 0.45 mg/eye topical sodium salt BID, Day 8, AM (24 hours after final dose), OS)?
A: The value was 25.1.

Q: And the “IOP, group Average” value [3, 16]?
A: Its value is 22.0.

Q: What about the “IOP, individual animal” value [3, 16] of the same molecule?
A: The value was 23.2 and 20.7 and 24.0.

Q: What about the “IOP, group Average” value [3, 17] of the same molecule?
A: Its value is 23.2.

Q: What about the “IOP, individual animal” value [3, 17] of the same molecule?
A: The value was 23.8 and 23.0 and 24.7.

Q: What about the “IOP, group Average” value [3, 18] of the same molecule?
A: The value was 24.1.

Q: What about the “IOP, individual animal” value [3, 18] of the same molecule?
A: The value was 23.8 and 22.7 and 24.7.

Q: What about the “IOP, group Average” value [3, 19] of the same molecule?
A: Its value is 24.9.

Q: What about the “IOP, individual animal” value [3, 19] of the same molecule?
A: Its value is 24.5 and 23.7 and 26.8.

Q: What about the “IOP, group Average” value [3, 20] of the same molecule?
A: Its value is 20.8.

Q: And the “IOP, individual animal” value [3, 20]?
A: The value was 17.5 and 18.5 and 24.3.

Q: And the “IOP, group Average” value [3, 21]?
A: The value was 21.2.

Q: And the “IOP, individual animal” value [3, 21]?
A: Its value is 19.3 and 20.2 and 24.0.

Q: What about the “IOP, group Average” value [3, 22] of the same molecule?
A: Its value is 20.7.

Q: And the “IOP, individual animal” value [3, 22]?
A: Its value is 19.2 and 20.0 and 23.0.

Q: And the “IOP, group Average” value [3, 23]?
A: The value was 21.2.

Q: And the “IOP, individual animal” value [3, 23]?
A: The value was 20.0 and 20.8 and 22.7.

Q: And the “IOP, group Average” value [3, 24]?
A: The value was 22.8.

Q: What about the “IOP, individual animal” value [3, 24] of the same molecule?
A: Its value is 23.2 and 19.8 and 23.8 and 24.8.

Q: What about the “IOP, group Average” value ([3]; Group 3: 1.2 mg/eye topical sodium salt BID, Day 4, AM, OS) of the same molecule?
A: Its value is 23.2.
